# Laboratory results taken from BindingDB's records for doi:10.1016/j.bmcl.2015.04.102 (Arena Pharmaceuticals, 2015).
# Assay: Displacement of [3H]-Astemizole from human ERG
smiles,measurement,value
C[C@@H](OC(=O)N1CCC(O[C@H]2CC[C@H](Oc3cnc(S(C)(=O)=O)cn3)CC2)CC1)C(F)(F)F,IC50,> 1000 µM
